From patent US8513205B2, “Potent chimeric NRTI-NNRTI bifunctional inhibitors of HIV-1 reverse transcriptase” (Yale University, priority 2008, dated 2013)
Like-named read-outs stand apart in the source and are kept apart here.

What was measured:
[1] = target: T1, HIV-1 RT (Human immunodeficiency virus type 1 group M subtype B, UniProt P03366); assay: Steady-state competition assay, inhibition of single nucleotide incorporation by HIV-1 RT; assay type: biochemical
T1 construct: heterodimeric p66/p51 wild-type HIV-1 RT; His tag (histidine tag) (C); made in house
Experimental: dTTP and dGTP were purchased from GE Biosciences. Oligonucleotide primers and template were synthesized and purified using 20% denaturing gel-electrophoresis. […] Labeling and annealing of primer/templates were performed as described previously. Murakami, et al., J. Biol. Chem. 2003, 278, 36403-36409. Expression and Purification of HIV-1 RT.
C-terminal histidine tagged heterodimeric p66/p51 wild-type HIV-1 RT was expressed and purified as described previously (Kerr and Anerson, Biochemistry, 1997, 36, 14064-14070) using a clone generously provided by Stephen Hughes, Paul Boyer, and Andrea Ferris (Fredrick Cancer Research and Development Center, Fredrick, Md.).
DMSO concentrations were kept constant at less than 2%. DMSO alone was added as a no inhibitor control for each set of experiments. Reactions were initiated with the addition of 5 μM dNTP and 10 mM MgCl2 and were quenched after 15 minutes at 37° C. with 0.3 M EDTA. All concentrations represent final concentrations after mixing. Reaction products were subjected to 20% denaturing polyacrylamide gel-electrophoresis and quantitated on a Bio-Rad Molecular Imager FX. Product formation was plotted as a function of inhibitor concentration and fitted to a hyperbola to generate IC50 curves. IC50 values are defined as the concentration of inhibitor that inhibits steady-state single nucleotide incorporation by 50%.

[2] = target: T1, HIV-1 RT; assay: Incorporation assay under single turnover conditions (gel, FIG. 7); assay type: biochemical; settings: 30 min, with Mg++; for incorporation into primer opposite template A: D23/D36mer, primer for T incorporation, no dTTP; for incorporation into primer opposite template C: D24/D36mer, primer for G incorporation, no dGTP
Experimental: Controls for both primer/templates include 0 time points (lanes 1 and 4) and incubation for 30 min. with no Mg^++ (lanes 2 and 5).
Incorporation experiments were performed under single turnover conditions; 50 μM d4U-TP-4PEG-TMC and 10 mM MgCl2 were mixed with 250 nM RT (active sites) and 50 nM 5′-labeled primer/template to initiate the reaction. Negative controls were performed under identical conditions without MgCl2. The reaction was allowed to proceed for 30 minutes at 37° C., after which the reaction was quenched with 0.3 M EDTA. Reaction products were subjected to 20% denaturing polyacrylamide gel-electrophoresis and analyzed on a Bio-Rad Molecular Imager FX.

[3] = inhibition of dGTP incorporation opposite template C, D24/D36mer primer-template, read-out: IC50 incorrect base pair
[4] = inhibition of dTTP incorporation opposite template A, D23/D36mer primer-template, read-out: IC50 correct base pair

SMILES | fold lower potency relative to parent TMC-derivative ([1]; correct base pair, D23/D36mer) [fold] | IC50 [1, 3] [nM] | IC50 [1, 4] [nM] | fold improvement in potency relative to TMC-4PEG-OH ([1]; correct base pair, D23/D36mer) [fold] | fold improvement relative to d4T-TP ([1]; correct base pair, D23/D36mer) [fold] | fold improvement relative to the TMC-derivative ([1]; correct base pair, D23/D36mer) | incorporation into primer opposite template A ([2]; listed as d4U-TP-4PEG-TMC) | incorporation into primer opposite template A ([2]; listed as d4UTP-4PEG-TMC) | incorporation into primer opposite template C ([2]; listed as d4U-TP-4PEG-TMC) | incorporation into primer opposite template C ([2]; listed as d4UTP-4PEG-TMC)
Cc1cc(C#CCOCCOCCOCCOCCO)cc(C)c1Oc1ccnc(Nc2ccc(C#N)cc2)n1 [TMC-4PEG-OH, E, 4-(4-{4-[3-(2-{2-[2-(2-Hydroxy-ethoxy)-ethoxy]-ethoxy}-ethoxy)-prop-1-ynyl]-2,6-dimethyl-phenoxy}-pyrimidin-2-ylamino)-benzonitrile] | 4 | 29 | 49 |  |  |  |  |  |  | 
Cc1cc(C#CCOCCOCCOCCOCCOCC#Cc2cn(C3C=CC(CO)O3)c(=O)[nH]c2=O)cc(C)c1Oc1ccnc(Nc2ccc(C#N)cc2)n1 (centres unmarked) [1b, d4U-propynyl-4-PEG-propynyl-TMC-120] |  | 35 | 16 | 3 |  |  |  |  |  | 
Cc1cc(C#CCOCCOCCOCCOCCOCC#Cc2cn(C3C=CC(COP(=O)(O)OP(=O)(O)OP(=O)(O)O)O3)c(=O)[nH]c2=O)cc(C)c1Oc1ccnc(Nc2ccc(C#N)cc2)n1 (centres unmarked) [1c, d4U-propynyl-4-PEG-propynyl-TMC-120 Triphosphate] |  | 38 | 3 |  | > 500 | 4-5 fold | formation of an elongated primer chain terminated with the bifunctional monophosphate | incorporation of the bifunctional-TP | not the D24/36mer primer-template | no product
